Data as given in US20220249538A1, “TREATMENT AGENT FOR SEX HORMONE-INSENSITIVE GREB1-POSITIVE TUMORS” (OSAKA UNIVERSITY, priority 2019, published 2022).

What was measured:
Format in all cases: cell-based, human
HepG2 cells [1] = test: Cell viability by propidium iodide and Hoechst33342 staining; details: medium without Z-VAD, 0.1% FBS, 2 days; PI and Hoechst33342
Description: Further, HepG2 cells were transfected with control siRNA or siRNAs (GREB1 #1 siRNA and GREB1 #2 siRNA), cultured in media (caspase inhibitor Z-VAD was contained in one condition, and not contained in the other condition) containing 0.1% FBS for 2 days, stained with propidium iodide (PI, […]) and Hoechst33342 (nucleus), and the cell viability was evaluated.
Further, HepG2 cells transfected with control siRNA, GREB1 siRNA (GREB1 #2 siRNA), p15 siRNA, or siRNA of GREB1 (GREB1 #2 siRNA) and siRNA of p15 in combination were cultured in media (caspase inhibitor Z-VAD was contained in one condition, and not contained in the other condition) containing 0.1% FBS for 2 days, stained with propidium iodide (PI) and Hoechst33342, and the cell viability was calculated.

[2] = test system: PAI-1 gene locus (exon 2); test: Chromatin immunoprecipitation with anti-acetylated histone 4 antibody, PAI-1 exon 2; details: HepG2 cells; presence or absence of 10 ng/mL TGFβ for 30 minutes
Description: Confluent HepG2 cells in a 10 cm dish were stimulated in the presence or absence of 5 ng/ml of TGFβ1 for 3 hours. Thereafter, the cells were allowed to crosslink using 1% formaldehyde at room temperature for 10 minutes, and the crosslinking reaction was terminated with 0.125 M glycine. The cells were washed three times with cold PBS, and thereafter the cells were removed and collected. Further, the cells were sedimented by centrifugation, and lysed with a sodium dodecyl sulfate (SDS) lysis buffer (50 mM Tris/HCl [pH 8.0], 10 mM EDTA, and 0.5% SDS). The cell lysates were subjected to ultrasonication to shear DNA into DNA fragments having sizes of 200 to 1000 bp. Supernatant of the sheared chromatin was diluted with ChIP dilution buffer (16.7 mM Tris/HCl [pH 8.0], 167 mM NaCl, 1.2 mM EDTA, and 1.1% Triton X-100) containing a protease inhibitor and a phosphatase inhibitor, and precleared by adding salmon sperm DNA/protein A-agarose beads (Millipore, Billerica, Mass., USA). […]
Further, HepG2 cells transfected with control siRNA or GREB1 #2 siRNA were cultured in the presence or absence of 10 ng/mL of TGFβ for 30 minutes. […] Next, the exon 2 domain of PAI contained in the cell lysates (Input) and immunoprecipitates (IP) was analyzed by PCR using domain-specific primers.

GREB1 = GREB1 expression in HepG2 cells after GREB1 siRNA or GREB1 ASO (cell lysates probed with anti-GREB1 antibody); details: siRNA 10 nm, lysate probing
Description: Phosphorothioated I5-mer antisense oligonucleotides (ASOs) containing AmNA monomers were prepared (synthesized by GeneDesign (Ibaraki, Japan)). In the present specification, “hGREB1-6424-AmNA (15)” is sometimes simply referred to as “ASO-6424” or “GREB1 ASO-6424”. Similar abbreviations are used for describing other ASOs. Using RNAiMAX (Invitrogen, Carlsbad, Calif., USA), HepG2 or COLO679 cells were transfected with 10 nM of ASOs. In experiments, the cells were used from 36 to 48 hours after transfection.
Using RNAiMAX (Life Technologies/Thermo Fisher Scientific), HepG2 cells, Huh6 cells, Hep3B cells, JHH7 cells, and SKMEL28 cells were each transfected with each siRNA (10 nm). In experiments, the cells were used from 48 to 120 hours after transfection.
As reported previously, knockdown of β-catenin decreased HepG2 cell proliferation (see a of FIG. 3). […] Thus, to elucidate the role of GREB1 in HepG2 cells, knockdown of GREB1 was carried out using two different siRNAs.
Next, HepG2 cells were transfected with control ASO or each of the above-described GREB1 ASOs, cultured in a medium containing 10% FBS for 2 days, and the cell lysates were probed with anti-GREB1 antibody and anti-HSP90 antibody.

HepG2 cells [3] = test: Three-dimensional Matrigel culture, area of spheres; details: 3D Matrigel for 5 days
Description: Cells grown on a glass cover slip were fixed with PBS containing 4% (w/v) paraformaldehyde at room temperature for 10 minutes, and permeabilization treatment was performed in PBS containing 0.2% (w/v) Triton X-100 and 2 mg/ml BSA for 10 minutes. Further, cells grown by three-dimensional culture were fixed in PBS containing 4% (w/v) paraformaldehyde at room temperature for 30 minutes, and blocked in PBS containing 0.5% (w/v) Triton X-100 and 40 mg/ml BSA for 30 minutes. […]
Further, HepG2 cells transfected with control siRNA or siRNA (GREB1 #2 siRNA) were cultured in 3D Matrigel for 5 days, and the cultured cells were stained with phalloidin to measure the areas of spheres (n=20). […] The ratio of spheres having polarized lumens was calculated as a ratio of spheres having F-actin-positive central microlumen to the total spheres.
Further, HepG2 cells expressing GFP or GFP-GREB1 were transfected with control ASO or each of the above-described GREB1 ASOs, and cultured in three-dimensional Matrigel for 4 days. The cultured cells were stained with phalloidin and Hoechst33342, and the areas of spheres were calculated (n=50).

GREB1 #2 siRNA: siRNA against human GREB1; sense 5′-CCUCCUACAAAGCAAUAUUTT-3′ (SEQ ID NO: 6), antisense SEQ ID NO: 7 (antisense AAUAUUGCUUUGUAGGAGGTT; chemistry not given here)
cell death of HepG2 cells (HepG2 cells [1]): elevated cell death | amount of acetylated histone 4 in the PAI-1 gene locus (exon 2) [2]: increased | knockdown of GREB1 (anti-GREB1 antibody) (GREB1): knocked down | ratio of spheres having polarized lumens (HepG2 cells [3]): increased | area of sphere (HepG2 cells [3]; phalloidin, n=20): reduced the area of sphere to half
